Results reported in patent US10358448B2, “Therapeutic compounds for pain and synthesis thereof” (priority 2015, dated 2019).
“And” between values parts separate entries of the source, which are not always exact repeats. Equal entries are not always repeated.

Columns and labels:
[1] = test system: Taxol model of neuropathic pain; test: Taxol animal model for neuropathic pain in mice; assay type: in vivo
Text: (§1) Table 7 summarizes the activity of Formula 1 in mice models of neuropathic pain following repeated daily administration using different routes of administration.

[2] = test system: CCl model of neuropathic pain; test: CCl animal model for neuropathic pain in mice; assay type: in vivo; details: SC, 150 mg/kg, repeated daily administration
Text: as §1

[3] = PO, 30 mg/kg, repeated daily administration
[4] = SC, doses tested 1, 3, 10 mg/kg, repeated daily administration

SMILES | Duration of activity at maximum effect [1, 3] [days] | Level of activity (% of maximum effect-baseline) [1, 3] [%] | Peak of activity (T) [1, 3] | Dose of maximum activity ([1]; PO, dose tested 30 mg/kg) [mg/kg] | Dose of maximum activity ([1]; SC, doses tested 1, 3, 10 mg/kg) [mg/kg] | Duration of activity at maximum effect [1, 4] [days] | Level of activity (% of maximum effect-baseline) [1, 4] [%] | Duration of activity at maximum effect [2] | Level of activity (% of maximum effect-baseline) [2] | Peak of activity (T) [2]
CC(C)(C)C(=O)O[C@@H]1C2[C@H]3C[C@H](C[C@@H]1N3CC1CC1)CN2C(=O)CC(F)(F)F (stereo partly drawn) [Formula 1, (2S,3S,6R,7aR)-1-(cyclopropylmethyl)-4-(3,3,3-trifluoropropanoyl)octahydro-1H-2,6-methanopyrrolo[3,2-b]pyridin-3-yl pivalate] | 3 | 100 | 1-24 H | <30 | 1 | 3 | 100 |  |  | 
NCC1(CC(=O)O)CCCCC1 [Gabapentin] |  |  |  |  |  |  |  | 4-6 H | >100% and 64% | 2-3 H
